In ChEMBL document CHEMBL4765246, “Design, synthesis and biological evaluation of quinoxaline compounds as anti-HIV agents targeting reverse transcriptase enzyme” (Eur J Med Chem, 2020):

Columns and labels:
[1] = system: Human immunodeficiency virus type 1 BH10; test: (§1) Inhibition of wild type recombinant HIV-1 subtype B BH10 p66/p51 reverse transcriptase heterodimer expressed in Escherichia coli BL21 (DE3) assessed as inhibition of dTTP incorporation on poly(rA)-oligo(dT) template primer duplex at 10 uM preincubated with enzyme for 2 mins followed by incubation with poly(A)-oligo(dT) templates for 2 hrs by flourescence assay method; conditions: time 122.0 min
[2] = system: Human immunodeficiency virus type 1 BH10; test: as §1, with “at 100” for “at 10”; conditions: time 122.0 min
[3] = Anti-HIV-1 activity against HTLV-3B infected in human MT2 cells assessed as reduction in syncytium formation by measuring reduction in p24 antigen production measured after 4 days by ELISA method; format: functional, cell-based; conditions: Human immunodeficiency virus 1, HTLV-3B, MT2, 96 h
[4] = as §1, with “duplex” for “duplex at 10 uM”; parameters: species or system Human immunodeficiency virus type 1 BH10
[5] = Cytotoxicity against human MT2 cells assessed as reduction in cell viability measured after 4 days by Trypan blue assay; format: cell-based; conditions: time 4 day
[6] = system: Human immunodeficiency virus type 1 BH10; test: Selectivity for inhibition of wild type recombinant HIV-1 subtype B BH10 p66/p51 reverse transcriptase heterodimer expressed in Escherichia coli BL21 (DE3) at 50 uM over inhibition of recombinant HIV-1 subtype B BH10 p66/p51 reverse transcriptase heterodimer K103N mutant at 50 uM by fluorescence based assay
[7] = Selectivity index, ratio of CC50 for human MT2 cells to EC50 for anti-HIV-1 activity against HTLV-3B infected in human MT2 cells; format: toxicity, cell-based; conditions: read-out: Ratio CC50/EC50
[8] = system: Human immunodeficiency virus type 1 BH10; test: as §1, with “of” for “of wild type”, “heterodimer K103N mutant” for “heterodimer expressed in Escherichia coli BL21 (DE3)”, “at 50” for “at 10”; conditions: time 122.0 min

Structure (SMILES) | inhibition [1] | inhibition [2] | EC50 [3] | IC50 [4] | CC50 at 96 h [5] | Selectivity ratio [6] | selectivity ratio [7] | inhibition [8]
C[C@H]1C(=O)Nc2ccccc2N1C(=O)CCCl | 15% | 28% | – | – | – | – | – | –
CC(C)c1nc2ccccc2[nH]c1=O | 12% | 17% | – | – | – | – | – | –
COC(=O)CCc1nc2ccccc2nc1O | 8% | 23% | – | – | – | – | – | –
CC(C)COC(=O)N1c2ccccc2NC(=O)[C@@H]1C | 37% | 64% | 1.58 µM | 64 µM | 117 µM | 5 | 74 | 13%
Oc1nc2ccccc2nc1O | 8% | 1% | – | – | – | – | – | –
Oc1nc2ccccc2nc1Cc1ccccc1 | 10% | 26% | – | – | – | – | – | –
CC(C)Cc1nc2ccccc2[nH]c1=O | 15% | 73% | > 10 µM | 23 µM | 134 µM | 16 | – | 5%
CC(C)OC(=O)CCc1nc2ccccc2nc1O | 21% | 25% | – | – | – | – | – | –
O=C1CN(C(=O)CCCl)c2ccccc2N1 | 12% | 26% | – | – | – | – | – | –
CC(C)[C@H]1C(=O)Nc2ccccc2N1C(=O)CCl | 5% | 12% | – | – | – | – | – | –
CC(C)OC(=O)N1CC(=O)Nc2ccccc21 | 20% | 19% | – | – | – | – | – | –
CC(C)C[C@H]1C(=O)Nc2ccccc2N1C(=O)CCCl | 10% | 20% | – | – | – | – | – | –
O=C(O)CCc1nc2ccccc2[nH]c1=O | 20% | 15% | – | – | – | – | – | –
CCOC(=O)CCc1nc2ccccc2nc1O | 15% | 12% | – | – | – | – | – | –
Cc1ccnc2c1NC(=O)c1cccnc1N2C1CC1 [NEVIRAPINE] | 91% | 98% | 0.0067 µM | 0.13 µM | 96.2 µM | 2 | 14400 | 50%
O=C1CN(C(=O)CCl)c2ccccc2N1 | 24% | 32% | – | – | – | – | – | –
O=C1CN(C(=O)c2ccccc2)c2ccccc2N1 | 14% | 33% | – | – | – | – | – | –
CC(C)[C@H]1C(=O)Nc2ccccc2N1C(=O)CCCl | 7% | 7% | – | – | – | – | – | –
CC(=O)N1CC(=O)Nc2ccccc21 | 7% | 56% | – | – | – | – | – | –
Cc1nc2ccccc2nc1O | 3% | 1% | – | – | – | – | – | –
CCC(=O)N1CC(=O)Nc2ccccc21 | 91% | 99% | 0.0031 µM | 0.63 µM | 98.6 µM | 2 | 31800 | 47%
CC(C)COC(=O)N1CC(=O)Nc2ccccc21 | 20% | 46% | > 10 µM | – | 262 µM | – | – | –
O=C1CN(S(=O)(=O)c2ccccc2)c2ccccc2N1 | 14% | 12% | – | – | – | – | – | –
CCC(=O)N1c2ccccc2NC(=O)[C@@H]1C | 7% | 23% | – | – | – | – | – | –
C[C@H]1CNc2ccccc2N1C(=O)CCl | 8% | 8% | – | – | – | – | – | –
CC(C)COC(=O)N1c2ccccc2NC(=O)[C@@H]1CC(C)C | 22% | 51% | – | 67 µM | – | 3 | – | 20%
